Here are results for 13 compounds from US20240270821A1, “GIP/GLP1/GCG TRI-RECEPTOR AGONISTS AND USES THEREOF” (priority 2023, published 2024).

By EC50 is commonly meant the concentration giving half of the maximal effect.

Holding throughout (assay type): cell-based
Test [1] deals with T1, hGIPR (Homo sapiens, UniProt P48546).
T1 sequence (P48546 22-466): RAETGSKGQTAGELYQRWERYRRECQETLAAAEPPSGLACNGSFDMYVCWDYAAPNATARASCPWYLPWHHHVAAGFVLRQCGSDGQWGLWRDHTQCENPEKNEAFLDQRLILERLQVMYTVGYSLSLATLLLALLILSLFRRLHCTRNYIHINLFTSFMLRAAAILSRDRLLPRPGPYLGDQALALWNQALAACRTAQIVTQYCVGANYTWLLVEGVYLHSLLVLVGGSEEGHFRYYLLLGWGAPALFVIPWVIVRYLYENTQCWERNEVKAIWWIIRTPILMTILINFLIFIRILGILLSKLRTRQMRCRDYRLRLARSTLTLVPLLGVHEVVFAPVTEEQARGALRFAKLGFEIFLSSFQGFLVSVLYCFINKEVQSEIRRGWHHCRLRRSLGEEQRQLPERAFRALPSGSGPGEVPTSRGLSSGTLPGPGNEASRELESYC
Put plainly: Functional cAMP activation in the presence of 0.1% casein (no HSA). The settings on record: in the presence of 0.1% casein (no HSA); geometric mean; read-out: Relative cAMP EC50, hGIPR.

Test [2] has as its target T2, hGLP-1R (Homo sapiens, UniProt P43220). Description: Functional cAMP activity in the presence of 1% HSA. To be noted: read-out: cAMP Rel EC50, hGLP-1R.
A further test concerns the target human GLP1-R (Homo sapiens, UniProt P43220). Put plainly: GLP1-R internalization assay in HEK293 cells. The settings on record: for EC50: HEK293 cells expressing SNAP-GLP-1R, read-out: GLP1R Internalization EC50; for Internalization % TOP: normalized to maximum concentration of GLP-1 (100%).
In a further test the target is hGcgR (Homo sapiens, UniProt P47871). Description: Functional cAMP activation in the presence of 0.1% casein (no HSA). To be noted: in the presence of 0.1% casein (no HSA); geometric mean; read-out: Relative cAMP EC50, hGcgR.
In a further test the target is human GcgR (Homo sapiens, UniProt P47871). Description: Functional cAMP activity in the presence of 1% HSA. The settings on record: read-out: cAMP Rel EC50, hGcgR.
The target of test [3] is T1, hGIPR. Put plainly: Functional cAMP activity in the presence of 1% HSA. The settings on record: read-out: cAMP Rel EC50, hGIPR.
Test [4] concerns the target T2, hGLP-1R. Put plainly: Functional cAMP activation in the presence of 0.1% casein (no HSA). The settings on record: in the presence of 0.1% casein (no HSA); geometric mean; read-out: Relative cAMP EC50, hGLP-1R.
Procedure: After a 30-minute incubation at 37° C., the resulting increase in intracellular cAMP is quantitatively determined using the CisBio CAMP Dynamic 2 HTRF Assay Kit (62AM4PEJ). Briefly, cAMP levels within the cell are detected by adding the cAMP-d2 conjugate in cell lysis buffer followed by the antibody anti-cAMP-Eu^3+-Cryptate, also in cell lysis buffer.
Intracellular cAMP levels are determined by extrapolation using a standard curve. Dose response curves of compounds are plotted as the percentage of stimulation normalized to minimum (buffer only) and maximum (maximum concentration of each control ligand) values and analyzed using a four parameter non-linear regression fit with a variable slope (Genedata Screener 13). EC50 is the concentration of compound causing half-maximal simulation in a dose response curve. Each relative EC50 value for the Geometric mean calculation is determined from a curve fitting.

Starred links: 1 amine or outer side, 2 acyl side, 3 side chain; linkers in the order of their positions; H or OH if unused. Non-standard residues stand in square brackets, D forms with d. Groups on a side chain read outwards from the residue. No end group written: not given here. *: point of attachment. C20 diacid = O=C(O)CCCCCCCCCCCCCCCCCCC(=O)*; C18 diacid = O=C(O)CCCCCCCCCCCCCCCCC(=O)*; γGlu = O=C(O)[C@H](CCC(=O)[*:2])N[*:1]; αMe4Pal = C[C@](N)(Cc1ccncc1)C(=O)O; 4Pal = N[C@@H](Cc1ccncc1)C(=O)O; αMeL = CC(C)C[C@](C)(N)C(=O)O; Orn = NCCC[C@H](N)C(=O)O; AEEA = NCCOCCOCC(=O)O; Aib = CC(C)(N)C(=O)O
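Throughout, for Relative cAMP EC50, hGIPR: intracellular cAMP rise after 30 min at 37 °C read by HTRF against a standard curve, scaled between buffer alone (0%) and top control ligand concentration (100%), four-parameter fit.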
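Throughout, for Relative cAMP EC50, hGLP-1R: intracellular cAMP rise after 30 min at 37 °C read by HTRF, normalized between buffer only (0%) and maximal control ligand (100%), four-parameter variable-slope fit.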
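Throughout, for Relative cAMP EC50, hGcgR: intracellular cAMP rise after 30 min at 37 °C, read by HTRF against a cAMP standard curve, scaled from buffer only (0%) to maximal control ligand response (100%).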

Sequence of human GLP1-R (P43220 24-463): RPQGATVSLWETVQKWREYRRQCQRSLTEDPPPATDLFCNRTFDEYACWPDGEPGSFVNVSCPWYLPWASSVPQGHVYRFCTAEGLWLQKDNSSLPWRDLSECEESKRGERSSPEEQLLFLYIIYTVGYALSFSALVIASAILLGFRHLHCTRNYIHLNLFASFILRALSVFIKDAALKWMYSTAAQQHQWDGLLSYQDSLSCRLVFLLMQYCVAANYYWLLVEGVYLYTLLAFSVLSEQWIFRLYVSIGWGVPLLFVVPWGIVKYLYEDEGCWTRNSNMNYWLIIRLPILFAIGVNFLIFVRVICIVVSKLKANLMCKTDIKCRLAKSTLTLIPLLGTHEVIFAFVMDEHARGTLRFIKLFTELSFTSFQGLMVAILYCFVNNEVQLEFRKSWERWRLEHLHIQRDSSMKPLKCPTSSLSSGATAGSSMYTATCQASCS
T2 sequence (P43220 24-463): as above
Sequence of hGcgR (P47871 26-477): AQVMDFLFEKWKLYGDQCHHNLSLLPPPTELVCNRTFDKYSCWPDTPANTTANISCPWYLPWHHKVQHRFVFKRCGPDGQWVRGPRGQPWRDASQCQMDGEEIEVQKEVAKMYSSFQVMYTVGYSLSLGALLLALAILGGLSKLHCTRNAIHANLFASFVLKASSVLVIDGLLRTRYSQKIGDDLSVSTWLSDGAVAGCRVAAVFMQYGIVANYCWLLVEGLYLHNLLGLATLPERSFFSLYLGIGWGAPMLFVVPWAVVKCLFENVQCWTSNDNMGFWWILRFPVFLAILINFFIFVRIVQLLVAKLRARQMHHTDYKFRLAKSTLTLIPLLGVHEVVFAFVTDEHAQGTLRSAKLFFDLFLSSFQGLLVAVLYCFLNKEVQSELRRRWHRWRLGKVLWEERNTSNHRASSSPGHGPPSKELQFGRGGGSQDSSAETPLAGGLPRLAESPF
Sequence of human GcgR (P47871 26-477): as above

With “H-Y[Aib]QGTFTSD[4Pal]SK[αMeL]LDKK([AEEA-γGlu-C18 diacid])AQ[Aib]AFIEYLIE[Aib]GESSGEPPPSGS-NH2 [Example 282]”, the EC50 was found to be 0.163 nM at hGIPR [1]; 217 nM on hGLP-1R [2]; 28.7 nM at human GLP1-R; 6.98 nM at hGcgR; 1830 nM at human GcgR; 22.1 nM at hGIPR [3]. For the same compound, at hGLP-1R [4], the EC50 amounted to 1.09 nM. Also, the “Internalization % TOP” value at human GLP1-R worked out at 71.9%.
On to “H-Y[Aib]QGTFTSDFS[Orn][αMeL]LDKK([AEEA-γGlu-C18 diacid])AQ[Aib]AFIEYLLE[Aib]GPSSGAPPPSGE-NH2 [Example 110]”, for which the EC50 was found to be 0.102 nM at hGIPR [1]; 821 nM at hGLP-1R [2]; 28.3 nM at human GLP1-R; 2.45 nM at hGcgR; 627 nM at human GcgR; 19.8 nM on hGIPR [3]. Moreover, the half-maximal effective concentration (EC50) on hGLP-1R [4] worked out at 2.99 nM. Besides, on human GLP1-R, the “Internalization % TOP” value is given as 42.5%.
Turning to “H-Y[Aib]QGTFTSDFSK[αMeL]LDKK([AEEA-γGlu-C20 diacid])AQ[Aib]AFIEYLLAGGPSSGAPPPSGE-NH2 [Example 11]”, the EC50 on hGIPR [1] amounted to 0.233 nM; on hGLP-1R [2], 337 nM; at human GLP1-R it was 75.1 nM; at hGcgR it was 12.5 nM; at human GcgR it was 1700 nM; on hGIPR [3], 40.8 nM. Besides, the EC50 on hGLP-1R [4] stood at 2.07 nM. Besides, at human GLP1-R, the “Internalization % TOP” value stood at 73.8%.
“H-Y[Aib]QGTFTSDFS[Orn][αMeL]LDKK([AEEA-γGlu-C18 diacid])AQ[Aib]AFIEWLLEGGHSSGAPPPSGT-NH2 [Example 171]”: the EC50 stood at 0.2 nM at hGIPR [1]; 287 nM at hGLP-1R [2]; 61.4 nM on human GLP1-R; 3.86 nM on hGcgR; 502 nM at human GcgR; 27.1 nM on hGIPR [3]. In addition, the EC50 at hGLP-1R [4] is 2.89 nM. In addition, the “Internalization % TOP” value on human GLP1-R is 36.1%.
Turning to “H-Y[Aib]QGTFTSDFS[Orn][αMeL]LDKK([AEEA-γGlu-C18 diacid])AQ[Aib]AFIEYLLAGGPSSGAPPPSGT-NH2 [Example 87]”, the EC50 on hGIPR [1] came to 0.128 nM; at hGLP-1R [2], 290 nM; at human GLP1-R it was 61.8 nM; on hGcgR, 8.51 nM; at human GcgR, 1110 nM; at hGIPR [3] it was 12.8 nM. Also, at hGLP-1R [4], the 50% effective concentration (EC50) was 2.75 nM. Also, the “Internalization % TOP” value on human GLP1-R was determined as 45.4%.
With “H-Y[Aib]QGTFTSD[4Pal]SR[αMeL]LDKK([AEEA-γGlu-C18 diacid])AQ[Aib]AFIEYLLE[Aib]GPSSGAPPPSGE-NH2 [Example 114]”, the concentration for a half-maximal effect (EC50) at hGIPR [1] was determined as 0.14 nM; on hGLP-1R [2], 1370 nM; at human GLP1-R it was 47.2 nM; on hGcgR, 5.63 nM; on human GcgR, 1120 nM; at hGIPR [3], 19.6 nM. At hGLP-1R [4], the EC50 amounted to 6.38 nM. At human GLP1-R, the “Internalization % TOP” value turned out to be 62.9%.
On to “Y[Aib]QGTFTSDFSK[αMeL]LDKK([AEEA-γGlu-C18 diacid])AQ[Aib]QFIEYLLAGGPSSGEPPPSEG-NH2 [Example 26]”, for which the EC50 on hGIPR [1] is 0.2 nM; at hGLP-1R [2] it was 623 nM; at human GLP1-R, 96.1 nM; at hGcgR, 4.82 nM; on human GcgR it was 980 nM; at hGIPR [3] it was 35.4 nM. Further, the EC50 at hGLP-1R [4] came out at 3.44 nM. Moreover, the “Internalization % TOP” value at human GLP1-R amounted to 75.6%.
Turning to “H-Y[Aib]QGTFTSDFS[Orn][αMeL]LDKK([AEEA-AEEA-γGlu-C18 diacid])AQ[Aib]AFIEYLLE[Aib]G[4Pal]SSGAPPPSGS-NH2 [Example 183]”, the EC50 on hGIPR [1] was 0.0759 nM; at hGLP-1R [2], 295 nM; at human GLP1-R it was 100 nM; at hGcgR, 3.83 nM; at human GcgR it was 504 nM; on hGIPR [3] it was 13.7 nM. At hGLP-1R [4], the EC50 is 5.03 nM. Moreover, the “Internalization % TOP” value on human GLP1-R was 45.4%.
As for “H-Y[Aib]QGTFTSDFSK[αMeL]LDKK([AEEA-γGlu-C20 diacid])AQ[Aib]AFIEYLLAGGPSSGEPPPSEG[AEEA]-NH2 [Example 32]”, the EC50 on hGIPR [1] is 0.28 nM; at hGLP-1R [2], 422 nM; at human GLP1-R, 86.1 nM; on hGcgR it was 11.6 nM; on human GcgR it was 1440 nM; on hGIPR [3] it was 66.1 nM. The EC50 on hGLP-1R [4] is 2.55 nM. The “Internalization % TOP” value at human GLP1-R came out at 64.4%.
“H-Y[Aib]QGTFTSDFS[Orn][αMeL]LDKK([AEEA-AEEA-γGlu-C18 diacid])AQ[Aib]AFIEYLLE[dA]GPSSGHPPPSG[4Pal]-NH2 [Example 256]”: the EC50 at hGIPR [1] was 0.176 nM; on hGLP-1R [2], 235 nM; on human GLP1-R, 87.8 nM; at hGcgR, 5.71 nM; at human GcgR, 625 nM; at hGIPR [3], 17.4 nM. On hGLP-1R [4], the EC50 came out at 2.87 nM. Also, the “Internalization % TOP” value on human GLP1-R came out at 43.5%.
Regarding `CC[C@H](C)[C@H](NC(=O)[C@H](Cc1ccccc1)NC(=O)[C@H](C)NC(=O)C(C)(C)NC(=O)[C@H](CCC(N)=O)NC(=O)[C@H](C)NC(=O)[C@H](CCCCNC(=O)COCCOCCNC(=O)CC[C@H](NC(=O)CCCCCCCCCCCCCCCCC(=O)O)C(=O)O)NC(=O)[C@H](CCCCN)NC(=O)[C@H](CC(=O)O)NC(=O)[C@H](CC(C)C)NC(=O)[C@](C)(CC(C)C)NC(=O)[C@H](CCCN)NC(=O)[C@H](CO)NC(=O)[C@H](Cc1ccncc1)NC(=O)[C@H](CC(=O)O)NC(=O)[C@H](CO)NC(=O)[C@@H](NC(=O)[C@H](Cc1ccccc1)NC(=O)[C@@H](NC(=O)CNC(=O)[C@H](CCC(N)=O)NC(=O)C(C)(C)NC(=O)[C@@H](N)Cc1ccc(O)cc1)[C@@H](C)O)[C@@H](C)O)C(=O)N[C@@H](CCC(=O)O)C(=O)N[C@@H](Cc1ccc(O)cc1)C(=O)N[C@@H](CC(C)C)C(=O)N[C@@H](CC(C)C)C(=O)N[C@@H](C)C(=O)NCC(=O)NCC(=O)N1CCC[C@H]1C(=O)N[C@@H](CO)C(=O)N[C@@H](CO)C(=O)NCC(=O)N[C@@H](C)C(=O)N1CCC[C@H]1C(=O)N1CCC[C@H]1C(=O)N1CCC[C@H]1C(=O)N[C@@H](CO)C(=O)NCC(=O)N[C@@H](CCC(=O)O)C(N)=O` [Example 112], the EC50 was 0.233 nM on hGIPR [1]; 892 nM on hGLP-1R [2]; 30.1 nM at human GLP1-R; 11 nM on hGcgR; 1810 nM at human GcgR; 5.77 nM at hGLP-1R [4]. In addition, at human GLP1-R, the “Internalization % TOP” value was determined as 59.1%.
Consider `CC[C@H](C)[C@H](NC(=O)[C@H](Cc1ccccc1)NC(=O)[C@H](C)NC(=O)C(C)(C)NC(=O)[C@H](CCC(N)=O)NC(=O)[C@H](C)NC(=O)[C@H](CCCCNC(=O)COCCOCCNC(=O)CC[C@H](NC(=O)CCCCCCCCCCCCCCCCC(=O)O)C(=O)O)NC(=O)[C@H](CCCCN)NC(=O)[C@H](CC(=O)O)NC(=O)[C@H](CC(C)C)NC(=O)[C@](C)(CC(C)C)NC(=O)[C@H](CCC(N)=O)NC(=O)[C@H](CO)NC(=O)[C@H](Cc1ccncc1)NC(=O)[C@H](CC(=O)O)NC(=O)[C@H](CO)NC(=O)[C@@H](NC(=O)[C@H](Cc1ccccc1)NC(=O)[C@@H](NC(=O)CNC(=O)[C@H](CCC(N)=O)NC(=O)C(C)(C)NC(=O)[C@@H](N)Cc1ccc(O)cc1)[C@@H](C)O)[C@@H](C)O)C(=O)N[C@@H](CCC(=O)O)C(=O)N[C@@H](Cc1ccc(O)cc1)C(=O)N[C@@H](CC(C)C)C(=O)N[C@@H](CC(C)C)C(=O)N[C@@H](CCC(=O)O)C(=O)N[C@H](C)C(=O)NCC(=O)N1CCC[C@H]1C(=O)N[C@@H](CO)C(=O)N[C@@H](CO)C(=O)NCC(=O)N[C@@H](C)C(=O)N1CCC[C@H]1C(=O)N1CCC[C@H]1C(=O)N1CCC[C@H]1C(=O)N[C@@H](CO)C(=O)NCC(=O)N[C@H](C(N)=O)[C@@H](C)O` [Example 821], for which the EC50 at hGIPR [1] worked out at 0.152 nM; on hGLP-1R [2] it was 362 nM; at hGcgR, 6.74 nM; at human GcgR it was 989 nM; on hGIPR [3], 26.1 nM; on hGLP-1R [4], 2.79 nM.
Regarding “H-Y[Aib]QGTFTSD[4Pal]S[Orn][αMeL]LD[Orn]K([γGlu-γGlu-C18 diacid])AQ[αMe4Pal]AFIEYLLAGGPSSGAPPPSGSEE-NH2 [Example 1068]”, the EC50 was 0.211 nM on hGIPR [1]; 1330 nM at hGLP-1R [2]; 4.8 nM on hGcgR; 295 nM on human GcgR; 20.2 nM at hGIPR [3]; 11.6 nM on hGLP-1R [4].
